Experiment [1] addresses PDE I. As to the kind of experiment: Phosphodiesterase inhibition in vitro, PDE I (Ca-calmodulin-stimulatable). The experiment is classed as biochemical, porcine aorta, porcine brain or, preferably, bovine aorta. Conditions: Ca/calmodulin added, substrate 10^-6 mol/l. The source says: (§1) The c-GMP-stimulatable PDE II, the c-GMP-inhibitable PDE III and the cAMP-specific PDE IV were isolated either from porcine or bovine heart myocard. The Ca^2+ -calmodulin-stimulatable PDE I was isolated from porcine aorta, porcine brain or, preferably, bovine aorta. The c-GMP-specific PDE V was obtained from porcine small intestine, porcine aorta, human platelets and, preferably, bovine aorta. They were purified by anion exchange chromatography on MonoQ® Pharmacia following essentially the method of M. Hoey and Miles D. Houslay, Biochemical Pharmacology, Vol. 40, 193-202 (1990) and C. Lugman et al. Biochemical Pharmacology Vol. 35 1743-1751 (1986).
(§2) The enzyme activity is determined in a test batch of 100 μl in 20 mM Tris/HCl buffer pH 7.5 which comprises 5 mM MgCl2, 0.1 mg/ml bovine serum albumin and either 800 Bq ^3 HcAMP or ^3 HcGMP. The end concentration of the corresponding nucleotide is 10^-6 mol/l. The reaction is started by adding the enzyme, and the quantity of enzyme is such that approx. 50% of the substrate are converted during the incubation time of 30 minutes. To test the cGMP-stimulatable PDE II, ^3 HcAMP is used as substrate, 10^-6 mol/l unlabelled cGMP are added to the batch. To test the Ca-calmodulin-dependent PDE I, 1 μM CaCl2 and 0.1 μM calmodulin are also added to the reaction batch. The reaction is stopped by adding 100 μl of acetonitrile which contains 1 mM cAMP and 1 mM AMP. 100 μl of the reaction batch are separated by HPLC and the cleavage products are quantified on-line using a flow scintillation counter. The substance concentration at which the reaction rate is reduced by 50% is measured. Also used for testing were the "Phosphodiesterase [^3 H] cAMP-SPA enzyme assay" and the "Phosphodiesterase [^3 H]cGMP-SPA enzyme assay" by Amersham Life Science. The test was performed following the manufacturer's protocol. To determine the PDE2 activity, the [^3 H] cAMP SPA assay was used, 10^-6 M cGMP being added to the reaction batch for activating the enzyme. To measure PDE1, 10^-7 M calmodulin and 1 μM CaCl2 were added to the reaction batch. PDE5 was measured using the [^3 H] cGMP SPA assay.

Experiment [2] deals with PDE II. As to the kind of experiment: Phosphodiesterase inhibition in vitro, PDE II (cGMP-stimulatable). The experiment is classed as biochemical, porcine or bovine. Conditions: 3H-cAMP substrate, 10^-6 mol/l cGMP added.
From the text: as §1, §2

Experiment [3] deals with PDE V. As to the kind of experiment: Phosphodiesterase inhibition in vitro, PDE V (cGMP-specific). The class given is biochemical. Conditions: 3H-cGMP substrate.
From the text: as §1, §2

This passage reports IC50 results from patent publication US6174884A, “1,5-dihydro-pyrazolo[34-D]-pyrimidinone derivatives” (Bayer Aktiengesellschaft, priority 1997, dated 2001).

`COc1ccc(Cc2nc3c(cnn3C(C)CCCc3ccccc3)c(=O)[nH]2)cc1OC` (stereo not drawn) [Example 9]: the IC50 in experiment [1], in experiment [2] and in experiment [3] was 0.3 µM throughout.
Regarding `Cc1nn(C(CCCc2ccccc2)C(C)O)c2nc(Cc3ccccc3)[nH]c(=O)c12` (single isomer, unassigned) [Example 33, 6-Benzyl-1-[1-(1-hydroxy-ethyl)-4-phenyl-butyl]-3-methyl-1,5-dihydro-pyrazolo[3,4-d]pyrimidin-4-one], the figures for the IC50 in experiment [1], in experiment [2] and in experiment [3] were 0.5 µM, 0.5 µM and 0.8 µM, respectively.
Turning to `CCc1nn(C(C)CCCc2ccccc2)c2nc(Cc3ccc(Br)cc3)[nH]c(=O)c12` (stereo not drawn) [Example 11, 6-(4-Bromo-benzyl)-1-(1-methyl-4-phenyl-butyl)-3-ethyl-1,5-dihydro-pyrazole[3,4-d]pyrimidin-4-one], the half-inhibitory concentration (IC50) – broadly, the concentration that inhibits the measured activity by half – in experiment [1] is > 10 µM; in experiment [2] it was 0.1 µM; in experiment [3], 0.05 µM.
For `CC(CCCc1ccccc1)n1ncc2c(=O)[nH]c(Cc3ccc(Cl)c(Cl)c3)nc21` (stereo not drawn) [Example 10], the concentration for half-maximal inhibition (IC50) in experiment [1] was 0.3 µM; in experiment [2], 0.5 µM; in experiment [3], 0.05 µM.
With `Cc1nn(C(CCCc2ccccc2)C(C)O)c2nc(Cc3ccccc3)[nH]c(=O)c12` (single isomer, unassigned) [Example 32, 6-Benzyl-1-[1-(1-hydroxy-ethyl)-4-phenyl-butyl]-3-methyl-1,5-dihydro-pyrazolo[3,4-d]pyrimidin-4-one], the IC50 worked out at 0.5 µM in experiment [1], 0.3 µM in experiment [2] and 0.3 µM in experiment [3].
